From patent publication US20190240502A1, “METHODS, COMPOSITIONS AND APPARATUSES FOR TREATING PSORIASIS BY PHOTOTHERAPY” (Luma Therapeutics, Inc., priority 2016, published 2019) come the findings set out here.

The series is classed as physicochemical. The method, then: In forming the dressing shown in FIGS. 19A and 19B, the gel may be heat cured (e.g., at between 30-40° C. for between 1-4 hours, e.g., 2 hours at 35° C.). As will be described in more detail below, a very high salt (e.g., MgCl2), such as between 5% and 50% (weight of salt to weight of gel total) may be added to the hydrogel. For example 10% MgCl2 may be used which may help keep the coal tar globules or clusters from dissolving into the gel. […] In the context of the dressings described herein, a decrease in U.V. transmittance may require a longer treatment time (given that power output from the light cannot be increased) or may make treatment with the dressing impossible or impractical. […] Typically the greater the percentage of MgCl2 the better the effect. However, 5% or more may be sufficient; if longer shelf life for the dressings (e.g., beyond one week, two weeks, three weeks, on month, two months, three months, six months, 1 year, etc.) is desired higher MgCl2 percentages (e.g., 7.5%, 10%, or more) may be used.

Consider coal tar, for which the “solubility of coal tar” value is “low solubility”. For the compound `[Cl-].[Cl-].[Mg+2]` [MgCl2], the “effect of additive on coal tar solubility in hydrogel” value is “lower coal tar solubility”. On the same count and under the same terms, with `OC[C@@H](O)[C@@H](O)[C@H](O)[C@@H](O)CO` [Sorbitol, sorbitol] the entry was “increased solubility of coal tar in water”.
